Results reported in the supplement of paper PMC4862054.
Blank lines part the entries; values can stand above or below the compound they belong to.

Key:
CAL-85-1 [1] = settings: 72 h
Procedure, shortened: (§1)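 For viability and cell death testing, 384-well plates carried compound at 5 concentrations in 10-fold steps over a compound-specific 10,000-fold range, and breast cancer cell lines were seeded in 20 µl suspension. After 72 h incubation, cell death was read by CellTox Green fluorescence (485/520 nm) before viability was read by CellTiter-Glo luminescence. EC50 was fitted from the dose-response curves and censored at the top concentration. Normalisation on each plate was to 0.1 % DMSO and a positive kill control.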

MDA-MB-453 [2] = settings: 72 h
Procedure, shortened: as §1

HCC1937 [3] = settings: 72 h
Procedure, shortened: as §1

MDA-MB-231 [4] = settings: 72 h
Procedure, shortened: as §1

CAL-51 [5] = settings: 72 h
Procedure, shortened: as §1

Hs578T [6] = settings: 72 h
Procedure, shortened: as §1

MCF-10A = settings: 72 h
Procedure, shortened: as §1

BT-474 [7] = settings: 72 h
Procedure, shortened: as §1

SK-BR-3 [8] = settings: 72 h
Procedure, shortened: as §1

BT-549 [9] = settings: 72 h
Procedure, shortened: as §1

MDA-MB-468 [10] = settings: 72 h
Procedure, shortened: as §1

MDA-MB-436 [11] = settings: 72 h
Procedure, shortened: as §1

CAL-120 [12] = settings: 72 h
Procedure, shortened: as §1

CAL-85-1 [13] = test: normalised viability (% of control), CellTiter-Blue; higher = more viable cells (100 = DMSO, 0 = benzethonium chloride kill control); settings: incubation time: 72 h
Procedure: (§2)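 DSRT, CellTiter-Blue viability, 72 h incubation. Signal is normalised to DMSO and benzethonium chloride controls. Value is the normalised response at dose 1.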

HCC1599 = test: as above; settings: incubation time: 72 h
Procedure: as §2

CAL-148 = test: as above; settings: incubation time: 72 h
Procedure: as §2

MFM-223 = test: as above; settings: incubation time: 72 h
Procedure: as §2

HCC1143 = test: as above; settings: incubation time: 72 h
Procedure: as §2

MDA-MB-453 [14] = test: as above; settings: incubation time: 72 h
Procedure: as §2

HCC1937 [15] = test: as above; settings: incubation time: 72 h
Procedure: as §2

MDA-MB-231 [16] = test: as above; settings: incubation time: 72 h
Procedure: as §2

CAL-51 [17] = test: as above; settings: incubation time: 72 h
Procedure: as §2

DU-4475 = test: as above; settings: incubation time: 72 h
Procedure: as §2

Hs578T [18] = test: as above; settings: incubation time: 72 h
Procedure: as §2

HDQ-P1 = test: as above; settings: incubation time: 72 h
Procedure: as §2

BT-474 [19] = test: as above; settings: incubation time: 72 h
Procedure: as §2

SK-BR-3 [20] = test: as above; settings: incubation time: 72 h
Procedure: as §2

BT-549 [21] = test: as above; settings: incubation time: 72 h
Procedure: as §2

MDA-MB-468 [22] = test: as above; settings: incubation time: 72 h
Procedure: as §2

MDA-MB-436 [23] = test: as above; settings: incubation time: 72 h
Procedure: as §2

CAL-120 [24] = test: as above; settings: incubation time: 72 h
Procedure: as §2

CAL-85-1 [25] = test: normalised viability (% of control), CellTiter-Blue; higher = more viable cells (about 100 = DMSO control); settings: incubation time: 72 h
Procedure, shortened: (§3)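 Compound dissolved in 5 µl medium was pre-loaded into 384-well plates, and breast cancer cell lines in 20 µl suspension were seeded on top and incubated 72 h. After adding 2.5 µl CellTiter-Blue reagent for 2 h at 37 °C, fluorescence was read at 560/590 nm. Plates were normalised to vehicle (100) and a positive kill control (0), with Z'-factor quality control. Each value is normalised viability at a single listed concentration from the series.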

Hs578T [26] = test: as above; settings: incubation time: 72 h
Procedure, shortened: as §3

BT-474 [27] = test: as above; settings: incubation time: 72 h
Procedure, shortened: as §3

MDA-MB-468 [28] = test: as above; settings: incubation time: 72 h
Procedure, shortened: as §3

MDA-MB-436 [29] = test: as above; settings: incubation time: 72 h
Procedure, shortened: as §3

CAL-120 [30] = test: as above; settings: incubation time: 72 h
Procedure, shortened: as §3

EC50, CellTiter-Glo (MDA-MB-453 [2]): 1.36 µM
EC50, CellTiter-Glo (HCC1937 [3]): > 10 µM
EC50, CellTiter-Glo (MDA-MB-231 [4]): 0.901 µM
EC50, CellTiter-Glo (BT-474 [7]): 2.01 µM
EC50, CellTiter-Glo (SK-BR-3 [8]): 2.12 µM
EC50, CellTiter-Glo (BT-549 [9]): 1.6 µM
EC50, CellTiter-Glo (MDA-MB-468 [10]): 1.84 µM
EC50, CellTiter-Glo (MDA-MB-436 [11]): > 10 µM
Compound: CN1CCN(CCOc2cc(OC3CCOCC3)c3c(Nc4c(Cl)ccc5c4OCO5)ncnc3c2)CC1 [Saracatinib]
EC50, CellTiter-Glo (CAL-85-1 [1]): 0.953 µM
EC50, CellTiter-Glo (CAL-51 [5]): 0.805 µM
EC50, CellTiter-Glo (Hs578T [6]): 2.33 µM
EC50, CellTiter-Glo (MCF-10A): 0.354 µM
EC50, CellTiter-Glo (CAL-120 [12]): > 10 µM
normalised viability (CAL-85-1 [13]; 1 nM): 88.7%
normalised viability (HCC1599; 1 nM): 97.2%
normalised viability (CAL-148; 1 nM): 89.8%
normalised viability (MFM-223; 1 nM): 105%
normalised viability (HCC1143; 1 nM): 80.9%
normalised viability (MDA-MB-453 [14]; 1 nM): 105%
normalised viability (HCC1937 [15]; 1 nM): 99.4%
normalised viability (MDA-MB-231 [16]; 1 nM): 85.5%
normalised viability (CAL-51 [17]; 1 nM): 106%
normalised viability (DU-4475; 1 nM): 107%
normalised viability (Hs578T [18]; 1 nM): 107%
normalised viability (HDQ-P1; 1 nM): 113%
normalised viability (BT-474 [19]; 1 nM): 93.9%
normalised viability (SK-BR-3 [20]; 1 nM): 91.5%
normalised viability (BT-549 [21]; 1 nM): 89.4%
normalised viability (MDA-MB-468 [22]; 1 nM): 104%
normalised viability (MDA-MB-436 [23]; 1 nM): 122%
normalised viability (CAL-120 [24]; 1 nM): 82.4%
normalised viability (CAL-85-1 [25]; 3 nM): 85.5%
normalised viability (Hs578T [26]; 10 nM): 102%
normalised viability (BT-474 [27]; 10 nM): 100%
normalised viability (MDA-MB-468 [28]; 10 nM): 108%
normalised viability (MDA-MB-436 [29]; 10 nM): 116%
normalised viability (CAL-120 [30]; 10 nM): 87.6%

EC50, CellTiter-Glo (MDA-MB-453 [2]): 0.552 µM
EC50, CellTiter-Glo (MDA-MB-231 [4]): 0.554 µM
EC50, CellTiter-Glo (BT-474 [7]): > 1 µM
EC50, CellTiter-Glo (SK-BR-3 [8]): 0.387 µM
EC50, CellTiter-Glo (BT-549 [9]): 0.639 µM
EC50, CellTiter-Glo (MDA-MB-468 [10]): 0.613 µM
EC50, CellTiter-Glo (MDA-MB-436 [11]): 0.391 µM
Compound: O=C1NC(=O)[C@@H](c2cn3c4c(cccc24)CCC3)[C@@H]1c1c[nH]c2ccccc12 [Tivantinib]
EC50, CellTiter-Glo (CAL-85-1 [1]): 0.528 µM
EC50, CellTiter-Glo (CAL-51 [5]): 0.744 µM
EC50, CellTiter-Glo (Hs578T [6]): 0.519 µM
EC50, CellTiter-Glo (MCF-10A): 0.318 µM
EC50, CellTiter-Glo (CAL-120 [12]): 0.991 µM
normalised viability (CAL-85-1 [13]; 0.1 nM): 101%
normalised viability (HCC1599; 0.1 nM): 85.6%
normalised viability (CAL-148; 0.1 nM): 110%
normalised viability (MFM-223; 0.1 nM): 85.6%
normalised viability (HCC1143; 0.1 nM): 108%
normalised viability (MDA-MB-453 [14]; 0.1 nM): 101%
normalised viability (HCC1937 [15]; 0.1 nM): 86.3%
normalised viability (MDA-MB-231 [16]; 0.1 nM): 111%
normalised viability (CAL-51 [17]; 0.1 nM): 106%
normalised viability (DU-4475; 0.1 nM): 107%
normalised viability (Hs578T [18]; 0.1 nM): 101%
normalised viability (HDQ-P1; 0.1 nM): 83.2%
normalised viability (BT-474 [19]; 0.1 nM): 128%
normalised viability (SK-BR-3 [20]; 0.1 nM): 95%
normalised viability (BT-549 [21]; 0.1 nM): 105%
normalised viability (MDA-MB-468 [22]; 0.1 nM): 110%
normalised viability (MDA-MB-436 [23]; 0.1 nM): 127%
normalised viability (CAL-120 [24]; 0.1 nM): 90.1%
normalised viability (CAL-85-1 [25]; 0.3 nM): 90.2%
normalised viability (Hs578T [26]; 1 nM): 133%
normalised viability (BT-474 [27]; 1 nM): 127%
normalised viability (MDA-MB-468 [28]; 1 nM): 112%
normalised viability (MDA-MB-436 [29]; 1 nM): 97.7%
normalised viability (CAL-120 [30]; 1 nM): 93.4%
